Measured values taken from patent US20100240656A1, “COMPOUNDS AS HSP90 INHIBITORS” (ORYZON GENOMICS, S.A., priority 2007, published 2010).
pEC50, pIC50: −log10 of the molar value.

Columns and labels:
Hsp90α = biological target: T1, Hsp90α (Homo sapiens, UniProt P07900); experiment: Human Hsp90α fluorescence polarization competition assay with Example 37 tracer; conditions: displacement of 50 nM example 37 tracer, 125 nM Hsp90α, 1 h 30 min, 20° C.; read-out: Relative binding affinity values (IC50) obtained from FP measurements
T1 construct: purchased Stressgen Bioreagents SPP-776
From the text: The aim of this study was to determine the binding ability of compounds of the invention to the N-terminal ATP binding site of Hsp90. For that purpose competition assays with fluorescently labeled Hsp90 binders were used (compounds of examples 37 and 41).
Compounds of examples 37 and 41 are structurally based on 8-(6-Iodo-benzo[1,3]dioxol-5-ylsulfanyl)-9-(3-isopropylamino-propyl)-9H-purin-6-ylamine, a known binder of the N-terminal ATP binding site of Hsp90 which has the ability of inhibiting the Hsp90 function (cf. Chiosis G. et al. “Identification of Potent Water Soluble Purine-Scaffold Inhibitors of the Heat Shock Protein 90”, J. Med. Chem., 2006, vol. 49, no. 1, p. 381). Compounds 37 and 41 keep the essential structural features of the known binder (which means that said compounds are able to bind to the ATP binding site) and incorporate a fluorescent probe which allows the detection of the binding by fluorescence polarization.
When the binders of examples 37 and 41 are used in the competition assay, in a first step said binders are allowed to interact with the N-terminal ATP binding site of Hsp90. Then the compounds of the invention are added and it is determined if they are able to bind to the N-terminal ATP binding site (which will imply that the binders of examples 37 and 41 have been replaced from the N-terminal ATP binding site). If after performing the assay, the binding between the tested compound of the invention and the Hsp90 is observed, this will be indicative that the compound of the invention has been bound to the ATP binding site of Hsp90 and, therefore, can inhibit the Hsp90.
Once compounds of examples 37 and 41 were synthesized as reported above, they were dissolved at 238 μM and 1 mM in DMSO respectively (Sigma-Aldrich, cat. No. 154938). Hsp90α was purchased from Stressgen Bioreagents (cat. No. SPP-776; Victoria, Canada). The assay buffer contained 100 mM Tris·HCl, pH 7.4, 20 mM KCl, 6 mM MgCl2. Before each use 5 μg/mL bovine serum albumin (BSA, Pierce, Rockford (Ill.), cat No. 23209), 0.25 mM TCEP (Sigma, cat No. 64706) and 0.01% NP40 (Nonidet P40 Substitute, Fluka, cat No. 74385) were freshly added (cf. Howes et al., “A fluorescence polarization assay for inhibitors of Hsp90”, Analytical Biochemistry, 2006, vol. 350, p. 202-213; Kim et al., “Development of a fluorescence polarization assay for the molecular chaperone Hsp90”, J. Biomol. Screen., 2004, vol. 9 (5)).
Fluorescence polarization measurements were performed on an Infinite F200 (Tecan, Austria). Measurements were taken in black 96-well microplates (Corning Costar No. 3650) in which both the excitation and the emission occurred from the top of the wells. In the Infinite F200, a xenon arc lamp provides excitation light that passes through a 485 nm (20-nm bandwidth) excitation filter and then a polarizer filter. A beam splitter filter directs the polarized excitation light into the well, and emitted fluorescence transmits back through the same beam-splitter filter, through a polarizer filter, and then through a 535 nm (25-nm bandwidth) emission filter for detection (Kim et al., supra). The read time per well was 20 μs, and the number of reads per well was 25.
Compounds were assayed over a three-fold dilution series in a 96-well plate format to determine IC50 values. The serial dilution was performed in a separate 96-well plate (Thermowell 96 well PCR plate, Non-Treated Polypropylene, Corning Costar No. 6551) at 50 times final assay concentration in DMSO. (Howes et al, supra). 2 μl of compound was transferred to a black 96-well plate (Corning Costar No. 3650) and 98 μL of reaction solution (100 mM Tris·HCl, pH 7.4, 20 mM KCl, 6 mM MgCl2, 5 μg/mL bovine serum albumin (BSA), 0.25 mM TCEP, 0.01% NP40, 50 nM the compound of example 37, 125 nM Hsp90α) was added per well. The plate was allowed to equilibrate for 1 h 30 min on a slow moving shaker at 20° C. in the dark. […]

HCT-116 = experiment: Cell growth inhibition by AlamarBlue method, HCT-116; type: cell-based; conditions: Homo sapiens; HCT-116, 72 hours; read-out: Cell growth inhibition values (EC50) obtained with AlamarBlue method
Description: (§1) The human colon cancer cell line HCT-116 and the human breast cell lines MCF-7 and SKBr3 were from the American Type Culture Collection (ATCC; CCL-247, HTB-22 and HTB-30, respectively).
(§2) The HCT-116 and SKBr3 cell lines were maintained in DMEM GlutaMAX (Invitrogen) supplemented with 10% fetal calf serum and the MCF-7 cell line was maintained in RPMI1640 GlutaMAX (Invitrogen) containing 1 mM sodium pyruvate and 10% fetal calf serum. Cells were grown in a humidified incubator at 37° C. in 5% CO2
(§3) Cells were plated in 96-well plates (Costar, 3596) at a density of 6000 cells/well in 50 μL medium 24 h before addition of the compounds. Compounds were then added in 8 concentrations, each in triplicate (dilution series of 1 to 3). To do so, a compound-dilution plate at 200× the screening concentrations was prepared in DMSO 100% (Sigma, 154938). Then, 1.7 μL of the 200× diluted compounds were transferred to a new plate and 170 μL of media were added and mixed with the pipette (plate at 2×). Columns 11 and 12 of this plate (controls) were filled with 1% DMSO in cell media (i.e. 1.7 μL DMSO and 170 μL cell media). Finally, 50 μL of this intermediate plate at 2× were transferred to the plate containing the seeded cells and slowly shaken manually. Cells were grown as described above. AlamarBlue viability assay (Biosource, Invitrogen, DAL1100) was performed 72 hours later following manufacturer's protocol. In brief, AlamarBlue diluted in media was added to cells to have a 5% solution (a 2× solution was prepared in media and 100 μL of this solution were transferred to each well, i.e. final volume of 200 μL). Cells were incubated at 37° C., 3 hours and at room temperature for an additional 30 min. Cells with no compound and, cells with no compound and lysed with triton X-100 (30 μL/well added 10 min before treatment with AlamarBlue) were used as controls (6 replicates of each). Fluorescence was monitored at 530 nm excitation and 590 nm emission wavelengths. Results were quantified using ELx800 Universal Microplate Reader (Bio-Tek Instruments, Inc.). EC50 were calculated as the dose of compound required to inhibit cell growth by 50%.

SKBr3 = experiment: Cell growth inhibition by AlamarBlue method, SKBr3; type: cell-based; conditions: Homo sapiens, SK-BR-3; SKBr3, 72 hours; read-out: Cell growth inhibition values (EC50) obtained with AlamarBlue method
Description: as §1, §2, §3

`CCCCn1c(Sc2cc(OC)ccc2OC)nc(C(N)=O)c1N` [Example 27, 5-amino-1-butyl-2-(2,5-dimethoxy-phenylsulfanyl)-1H-imidazole-4-carboxamide] showed a pIC50 (Hsp90α) of 3.70.

In the case of `Cn1c(Sc2nc3cccc(Cl)c3s2)nc(C(N)=O)c1N` [Example 51, 5-amino-2-(7-chloro-benzothiazol-2-ylsulfanyl)-1-methyl-1H-imidazole-4-carboxamide], the pIC50 (Hsp90α) was 5.51.

For `CC(=O)Nc1c(C(N)=O)nc(Sc2cc3c(cc2I)OCO3)n1CCCNC(C)C` [Example 69, 5-acetylamino-2-(6-iodo-benzo[1,3]dioxol-5-ylsulfanyl)-1-(3-isopropylamino-propyl)-1H-imidazole-4-carboxamide], the pIC50 (Hsp90α) was 3.70.

`Cn1c(Sc2cc3c(cc2Br)OCO3)nc(C(N)=O)c1N` [Example 73, 5-amino-2-[(6-bromo-1,3-benzodioxol-5-yl)thio]-1-methyl-1H-imidazole-4-carboxamide] was tested, and the pIC50 (Hsp90α) was 4.82 and the pEC50 (HCT-116) was 4.11.

Work on `CC(C)c1cc2c(cc1Sc1nc(C(N)=O)c(N)n1C)OCO2` [Example 75, 5-amino-2-[(6-isopropyl-1,3-benzodioxol-5-yl)thio]-1-methyl-1H-imidazole-4-carboxamide] yielded a pIC50 (Hsp90α) of 4.25.

`C=Cc1cc2c(cc1Sc1nc(C(N)=O)c(N)n1C)OCO2` [Example 77, 5-amino-1-methyl-2-[(6-vinyl-1,3-benzodioxol-5-yl)thio]-1H-imidazole-4-carboxamide] showed a pIC50 (Hsp90α) of 5.35, a pEC50 (SKBr3) of 4.41 and a pEC50 (HCT-116) of 4.41.

With `CCOc1cc2c(cc1Sc1nc(C(N)=O)c(N)n1C)OCO2` [Example 79, 5-amino-2-[(6-ethoxy-1,3-benzodioxol-5-yl)thio]-1-methyl-1H-imidazole-4-carboxamide] the pIC50 (Hsp90α) was 4.90 and the pEC50 (HCT-116) was 4.04.

With `CSc1cc2c(cc1Sc1nc(C(N)=O)c(N)n1C)OCO2` [Example 81, 5-amino-1-methyl-2-{[6-(methylthio)-1,3-benzodioxol-5-yl]thio}-1H-imidazole-4-carboxamide] the pIC50 (Hsp90α) was 5.40 and the pEC50 (SKBr3) was 4.64.

In the case of `Cn1c(Sc2cc3c(cc2S(C)(=O)=O)OCO3)nc(C(N)=O)c1N` [Example 83, 5-amino-1-methyl-2-{[6-(methylsulfonyl)-1,3-benzodioxol-5-yl]thio}-1H-imidazole-4-carboxamide], the pIC50 (Hsp90α) was 5.10 and the pEC50 (HCT-116) was 4.58.

`Cn1c(Sc2cc3c(cc2I)OCO3)nc(C(N)=O)c1N` [Example 85, 5-amino-2-[(6-iodo-1,3-benzodioxol-5-yl)thio]-1-methyl-1H-imidazole-4-carboxamide] gave a pIC50 (Hsp90α) of 5.28.

`NC(=O)c1nc(Sc2cc3c(cc2Br)OCO3)n(CCCN2CCOCC2)c1N` [Example 86, 5-amino-2-[(6-bromo-1,3-benzodioxol-5-yl)thio]-1-(3-morpholin-4-ylpropyl)-1H-imidazole-4-carboxamide] showed a pIC50 (Hsp90α) of 5.47 and a pEC50 (HCT-116) of 4.04.

In the case of `NC(=O)c1nc(Sc2cc3c(cc2I)OCO3)n(CCCN2CCOCC2)c1N` [Example 87, 5-amino-2-[(6-iodo-1,3-benzodioxol-5-yl)thio]-1-(3-morpholin-4-ylpropyl)-1H-imidazole-4-carboxamide], the pIC50 (Hsp90α) was 6.05, the pEC50 (SKBr3) was 5.34 and the pEC50 (HCT-116) was 6.00.

`CCN(CC)CCCn1c(Sc2cc3c(cc2I)OCO3)nc(C(N)=O)c1N` [Example 88, 5-Amino-2-[(6-iodo-1,3-benzodioxol-5-yl)thio]-1-[3-(diethylamino)propyl]-1H-imidazole-4-carboxamide] gave a pIC50 (Hsp90α) of 6.22 and a pEC50 (SKBr3) of 5.96.

For `CCN(CC)CCCn1c(Sc2cc3c(cc2Br)OCO3)nc(C(N)=O)c1N` [Example 89, 5-amino-2-[(6-bromo-1,3-benzodioxol-5-yl)thio]-1-[3-(diethylamino)propyl]-1H-imidazole-4-carboxamide], the pIC50 (Hsp90α) was 5.32 and the pEC50 (SKBr3) was 4.74.

Molecule `Cc1c(N)c(C(N)=O)nn1Cc1cc2c(cc1Br)OCO2` [Example 92, 4-amino-1-(6-bromo-benzol[1,3]dioxol-5-ylmethyl)-5-methyl-1H-pyrazole-3-carboxamide] has a pEC50 (HCT-116) of 4.68.

`CC(=O)Nc1c(C(N)=O)nn(Cc2cc3c(cc2Br)OCO3)c1C` [Example 93, 4-(acetylamino)-1-[(6-bromo-1,3-benzodioxol-5-yl)methyl]-5-methyl-1H-pyrazole-3-carboxamide] gave a pEC50 (HCT-116) of 4.52.

`CCC(=O)Nc1c(C(N)=O)nn(Cc2cc3c(cc2Br)OCO3)c1C` [Example 94, 1-[(6-bromo-1,3-benzodioxol-5-yl)methyl]-5-methyl-4-(propionylamino)-1H-pyrazole-3-carboxamide] gave a pEC50 (HCT-116) of 5.68.

With `Cc1c(NS(C)(=O)=O)c(C(N)=O)nn1Cc1cc2c(cc1Br)OCO2` [Example 95, 1-[(6-bromo-1,3-benzodioxol-5-yl)methyl]-5-methyl-4-[(methylsulfonyl)amino]-1H-pyrazole-3-carboxamide] the pEC50 (HCT-116) was 4.08.

With `Cn1c(Sc2cc3c(cc2Br)OCC3)nc(C(N)=O)c1N` [Example 97, 5-amino-2-[(6-bromo-2,3-dihydro-1-benzofuran-5-yl)thio]-1-methyl-1H-imidazole-4-carboxamide] the pIC50 (Hsp90α) was 5.30, the pEC50 (SKBr3) was 4.39 and the pEC50 (HCT-116) was 4.15.

Molecule `CCN(CC)CCCn1c(Sc2cc3c(cc2SC)OCO3)nc(C(N)=O)c1N` [Example 98, 5-amino-2-{[6-(methylthio)-1,3-benzodioxol-5-yl]thio}-1-[3-(diethylamino)propyl]-1H-imidazole-4-carboxamide] has a pIC50 (Hsp90α) of 5.70, a pEC50 (SKBr3) of 5.72 and a pEC50 (HCT-116) of 5.22.

`CCSc1cc2c(cc1Sc1nc(C(N)=O)c(N)n1CCCN(CC)CC)OCO2` [Example 100, 5-amino-2-{[6-(ethylthio)-1,3-benzodioxol-5-yl]thio}-1-[3-(diethylamino)propyl]-1H-imidazole-4-carboxamide] was tested, and the pIC50 (Hsp90α) was 5.84 and the pEC50 (HCT-116) was 5.92.
